Measured values as given in US6825354B2 (Wyeth Holdings Corporation, priority 1999, dated 2004).
Where a name gives a salt, the structure may show the parent alone. Read-outs that look alike come from different tables or passages of the source.

Tests used:
[1] = target: TNF-α converting enzyme (TACE) (Homo sapiens, UniProt P78536); test: TACE inhibition, fluorescent peptidyl substrate; format: biochemical; details: for TACE % @ 10 μM: footnote a: % @ 10 μM
Procedure: […] The reaction is initiated by addition of a fluorescent peptidyl substrate (final concentration 100 μM) to each well and then shaking on a shaker for 5 sec.
The reaction is read (excitation 340 nm, emission 420 nm) for 10 min. and the increase in fluorescence over time is plotted as a linear line. The slope of the line is calculated and represents the reaction rate.
(§1) The mean (x±sem) of the control rate is calculated and compared for statistical significance (p<0.05) with drug-treated rates using Dunnett's multiple comparison test.

[2] = target: T1, MMP-1 (Homo sapiens, UniProt P03956); test: MMP-1 inhibition, thiopeptide or fluorescent peptide substrate; format: biochemical; details: Table 1, first part; read-out: MMP1 IC50
T1 sequence (P03956 100-469): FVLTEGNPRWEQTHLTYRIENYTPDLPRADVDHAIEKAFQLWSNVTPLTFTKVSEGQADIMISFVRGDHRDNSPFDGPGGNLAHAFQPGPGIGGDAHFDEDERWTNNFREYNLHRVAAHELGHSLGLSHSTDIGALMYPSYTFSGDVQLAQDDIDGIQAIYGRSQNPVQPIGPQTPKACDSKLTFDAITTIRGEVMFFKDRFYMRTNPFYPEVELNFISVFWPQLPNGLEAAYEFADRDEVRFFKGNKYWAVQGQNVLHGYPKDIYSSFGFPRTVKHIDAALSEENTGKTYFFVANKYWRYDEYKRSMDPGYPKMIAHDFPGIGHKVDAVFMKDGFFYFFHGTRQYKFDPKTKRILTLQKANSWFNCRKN
Procedure: The enzyme activity is measured by the rate of the color increase. The thiopeptide substrate is made up fresh as a 20 mM stock in 100% DMSO and the DTNB is dissolved in 100% DMSO as a 100 mM stock and stored in the dark at room temperature. Both the substrate and DTNB are diluted together to 1 mM with substrate buffer (50 mM HEPES pH 7.5, 5 mM CaCl2) before use. The stock of enzyme is diluted with buffer (50 mM HEPES, pH 7.5, 5 mM CaC12, 0.02% Brij) to the desired final concentration.
Alternatively, a fluorescent peptide substrate is used. In this test procedure, the peptide substrate contains a fluorescent group and a quenching group. Upon cleavage of the substrate by an MMP, the fluorescence that is generated is quantitated on the fluorescence plate reader. The assay is run in HCBC assay buffer (50 mM HEPES, pH 7.0, 5 mM Ca^+2, 0.02% Brij, 0.5% Cysteine), with human recombinant MMP-1, MMP-9, or MMP-13. The substrate is dissolved in methanol and stored frozen in 1 mM aliquots. For the assay, substrate and enzymes are diluted in HCBC buffer to the desired concentrations. Compounds are added to the 96 well plate containing enzyme and the reaction is started by the addition of substrate.
as §1, with “For either the thiopeptide or fluorescent peptide test procedures, the slope of the line is calculated and represents the reaction rate. […] The” for “The”

[3] = Table 1, first part, read-out: TACE IC50
[4] = Table 1, second part, footnote a: IC50 (nM), read-out: TACE IC50

Sequence of TNF-α converting enzyme (TACE) (P78536 215-824): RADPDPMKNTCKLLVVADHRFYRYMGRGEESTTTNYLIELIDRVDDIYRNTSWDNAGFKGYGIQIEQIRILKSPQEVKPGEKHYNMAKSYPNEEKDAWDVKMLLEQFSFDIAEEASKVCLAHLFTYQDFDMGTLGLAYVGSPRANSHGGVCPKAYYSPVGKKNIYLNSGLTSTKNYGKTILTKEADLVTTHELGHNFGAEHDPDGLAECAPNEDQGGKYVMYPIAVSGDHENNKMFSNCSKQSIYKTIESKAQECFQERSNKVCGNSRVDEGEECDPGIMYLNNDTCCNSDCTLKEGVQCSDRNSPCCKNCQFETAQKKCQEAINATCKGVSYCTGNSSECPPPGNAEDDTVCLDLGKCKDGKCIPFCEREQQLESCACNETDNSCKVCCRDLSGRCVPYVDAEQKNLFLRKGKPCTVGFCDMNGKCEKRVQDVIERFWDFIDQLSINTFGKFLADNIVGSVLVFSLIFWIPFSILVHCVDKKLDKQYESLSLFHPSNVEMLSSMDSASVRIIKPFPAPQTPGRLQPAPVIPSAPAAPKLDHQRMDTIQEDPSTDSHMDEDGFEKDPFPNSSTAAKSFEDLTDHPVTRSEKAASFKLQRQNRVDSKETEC

1-Methyl-1H-pyrrole-2-carboxylic acid {[5-(4-but-2-ynyloxy-benzenesulfinyl)-5-hydroxy-carbamoylpentyl-carbamoyl]-methyl}-amide [Example 61]
IC50 [1, 3]: 22.5 nM | IC50 [2]: 5600 nM

2-(4-But-2-ynyloxy-benzenesulfinyl)-6-(4-thiophen-2-yl-butyrylamino)-hexanoic acid hydroxyamide [Example 58]
IC50 [1, 3]: 20.1 nM | IC50 [2]: 4600 nM

2-(4-But-2-ynyloxy-benzenesulfinyl)-6-[2-(1,3-dioxo-1,3-dihydro-isoindol-2-yl)-acetylamino]-hexanoic acid hydroxyamide [Example 55]
IC50 [1, 3]: 38.5 nM

2-(4-But-2-ynyloxy-benzenesulfinyl)-6-[2-(3,4-dichloro-phenyl)-acetylamino]-hexanoic acid hydroxyamide [Example 57]
IC50 [1, 3]: 24.4 nM | IC50 [2]: 4600 nM

9H-Xanthene-9-carboxylic acid [5-(4-but-2-ynyloxy-benzenesulfinyl)-5-hydroxycarbamoyl-pentyl]-amide [Example 59]
IC50 [1, 3]: 22.6 nM | IC50 [2]: 3400 nM

CC#CCOc1ccc(S(=O)(=O)C(C)(Cc2ccc(OCCN3CCCCC3)cc2)C(=O)NO)cc1 (stereo not drawn) (as salt: hydrochloride) [Example 1, 2-(4-But-2-ynyloxy-benzenesulfonyl)-N-hydroxy-2-methyl-3-[4-(2-piperidin-1-yl-ethoxy)-phenyl]-propionamide]
melting point: 114 to 116 °C

CC#CCOc1ccc(S(=O)(=O)C(C)(Cc2cccnc2)C(=O)NO)cc1 (stereo not drawn) (as salt: hydrochloride) [Example 3, 2-(4Buty-2-ynyloxy-phenylsulfonyl)-N-hydroxy-2-methyl-3-pyridin-3-ylpropionamide]
melting point: 154 to 156 °C

CC#CCOc1ccc([S+]([O-])[C@H](C(=O)NO)c2ccc(OC)cc2)cc1 (single isomer, unassigned) [Example 78]
IC50 [1]: 17.6 nM

CC#CCOc1ccc(S(=O)(=O)C(C)(Cc2ccc(-c3ccccc3)cc2)C(=O)NO)cc1 (stereo not drawn) [Example 2, 3-Biphenyl-4-yl-2-(4-Buty-2-ynyloxy-phenylsulfonyl)-N-hydroxy-2-methyl-propionamide]
melting point: 92 to 94 °C

CC#CCOc1ccc(SC(C)C(=O)NO)cc1 (stereo not drawn) [Example 4, 2-(4-Buty-2-ynyloxy-phenylsulfanyl)-N-hydroxy-propionamide]
melting point: 102 to 104 °C

CC#CCOc1ccc(SC(CCCCCC)C(=O)NO)cc1 (stereo not drawn) [Example 6, 2-(4-But-2-ynyloxy-phenylsulfanyl)-octanoic Acid Hydroxamide]
melting point: 125 °C

CC#CCOc1ccc([S@@+]([O-])[C@@H](CCCCCC)C(=O)NO)cc1 [Example 8, (S)-2-[(S)-[4-(2-Butynyloxy)phenylsulfinyl)]-N-hydroxyoctanamide]
melting point: 112.2 °C

CC#CCOc1ccc(OCCC(=O)NO)cc1 [Example 9, 3-(4-But-2-ynyloxy-phenoxy)-N-hydroxy-propionamide]
melting point: 116 to 118 °C

CC#CCOc1ccc(OCCCC(=O)NO)cc1 [Example 10, 4-(4-But-2-ynyloxy-phenoxy)-N-hydroxy-butyramide]
melting point: 123 to 125 °C

CC#CCOc1ccc(OCC(=O)NO)cc1 [Example 11, 2-(4-But-2-ynyloxy-phenoxy)-N-hydroxy-acetamide]
melting point: 130 to 132 °C

CC#CCOc1ccc([S+]([O-])C(CCCCNC(=O)c2nccc3ccccc23)C(=O)NO)cc1 (stereo not drawn) [Example 31, Isoquinoline-1-carboxylic acid [5-(4-but-2-ynyloxy-benzenesulfinyl)-5-hydroxycarbamoyl-pentyl]-amide]
IC50 [1, 3]: 28.3 nM

CC#CCOc1ccc(S(=O)(=O)C(CCCCNC(=O)Cc2ccc(Cl)c(Cl)c2)C(=O)NO)cc1 (stereo not drawn) [Example 37, 2-(4-But-2-ynyloxy-benzenesulfonyl)-6-[2-(3,4-dichloro-phenyl)-acetylamino]-hexanoic acid hydroxyamide]
IC50 [1, 3]: 43.7 nM

CC#CCOc1ccc(SC(CCCCNC(=O)CNC(=O)Cc2ccc(Cl)c(Cl)c2)C(=O)NO)cc1 (stereo not drawn) [Example 43, 2-(4-but-2-ynyloxy-phenylsulfanyl)-6-{2-[2-(3,4-dichloro-phenyl)-acetylamino]-acetylamino}-hexanoic acid hydroxyamide]
IC50 [1, 3]: 32.5 nM

CC#CCOc1ccc(S(=O)(=O)C(CCCCNC(=O)CNC(=O)Cc2ccc(Cl)c(Cl)c2)C(=O)NO)cc1 (stereo not drawn) [Example 65, 2-(4-But-2-ynyloxy-benzenesulfonyl)-6-{2-[2-(3,4-dichloro-phenyl)-acetylamino]-acetylamino}-hexanoic acid hydroxyamide]
IC50 [1, 3]: 52.1 nM

CC#CCOc1ccc([S+]([O-])[C@@H](C(=O)NO)c2ccc(-c3cccs3)cc2)cc1 (stereo partly drawn) [Example 90, (2R)-2-{[4-(2-butynyloxy)phenyl]sulfinyl}-N-hydroxy-2-[4-(2-thienyl)phenyl]ethanamide]
IC50 [1, 4]: 682 nM

CC#CCOc1ccc(S(=O)(=O)C(C(=O)NO)c2ccc(-c3cccs3)cc2)cc1 (stereo not drawn) [Example 91, 2-{[4-(2-butynyloxy)phenyl]sulfonyl}-N-hydroxy-2-[4-(2-thienyl)phenyl]acetamide]
TACE % @ 10 μM ([1]; Table 1, second part): 48%

CC#CCOc1ccc(SC(C(=O)NO)c2ccc(F)cc2)cc1 (stereo not drawn) [Example 95]
IC50 [1, 4]: 108 nM

CC#CCOc1ccc(SC(C(=O)NO)c2ccc3ccccc3c2)cc1 (stereo not drawn) [Example 114, 2-{[4-(2-Butynyloxy)phenyl]sulfanyl}-2-(2-naphthyl)-N-hydroxyacetamide]
TACE % @ 10 μM ([1]; Table 1, second part): 40.90%

CC#CCOc1ccc(S(=O)(=O)C(C(=O)NO)C2CCN(C(C)=O)CC2)cc1 (stereo not drawn) [Example 121, 2-(1-acetyl-4-piperidinyl)-2-{[4-(2-butynyloxy)phenyl]sulfonyl}-N-hydroxyacetamide]
melting point: 103 °C

CC#CCOc1ccc(S(=O)(=O)C(C(=O)NO)C2CCSCC2)cc1 (stereo not drawn) [Example 123, 2-{[4-(2-Butynyloxy)phenyl]sulfonyl}-N-hydroxy-2-tetrahydro-2H-thiopyran-4yl-acetamide]
melting point: 175 to 177 °C

N-[5-(4-But-2-ynyloxy-benzenesulfinyl)-5-hydroxycarbamoyl-pentyl]-2-phenethyl-benzamide [Example 56]
IC50 [1, 3]: 21.9 nM | IC50 [2]: 3900 nM

N-[5-(4-But-2-ynyloxy-phenylsulfanyl)-5-hydroxycarbamoyl-pentyl]-2-phenethyl-benzamide [Example 15]
IC50 [1, 3]: 138 nM

N-{[5-(4-But-2-ynyloxy-phenylsulfanyl)-5-hydroxy-carbamoyl-pentylcarbamoyl]-methyl}-2-phenethyl-benzamide [Example 46]
IC50 [1, 3]: 84.2 nM

Quinoline-2-carboxylic acid [5-(4-but-2-ynyloxy-benzenesulfinyl)-5-hydroxycarbamoyl-pentyl]-amide [Example 54]
IC50 [1, 3]: 27.2 nM

Quinoline-3-carboxylic Acid [5-(4-but-2-ynyloxy-benzenesulfinyl)-5-hydroxycarbamoyl-pentyl]-amide [Example 53]
IC50 [1, 3]: 15.2 nM | IC50 [2]: 4000 nM
